Experimental findings from patent US20220273703A1, “NRF2 ACTIVATION FOR TREATMENT OF NEPHROGENIC DIABETES INSIPIDUS” (University Of Pittsburgh-Of The Commonwealth System Of …, priority 2019, published 2022) are described below.

Data set [1] deals with Nrf2. Briefly: 10-nitro-9(E)-octadec-9-enoic acid in nephrogenic diabetes insipidus. The note with it: in vivo. An excerpt: The pharmacologic activation of Nrf2 with CDDO-Me provided motivation to evaluate the viability of 10-nitro-9(E)-octadec-9-enoic acid as an activator and potential API for treating or preventing NDI.
The subject of data set [2] is Nrf2 gene target NQO1. Description: NQO1 expression (immunoblotting) in primary human renal cortical cells. The data set is classed as cell-based. The method, then:
Cell culture: Primary human distal tubule cells from human adult kidneys were isolated and cultured as previously described (Emlet et al., Am. J. Physiol.-Ren. Physiol. 312, (2017)). Confluent monolayers of cells were incubated with vehicle control, LiCl or CDDO-Im for 18 hr in serum-free hormonally defined media followed by preparation of lysates for immunoblotting.
(§1) Immunoblotting: Flash-frozen kidneys were homogenized in ice-cold Radio Immuno Precipitation Assay (RIPA) buffer containing protease and phosphatase inhibitor cocktails. Cells were treated as indicated. At time of collection, cells were washed 2× with cold PBS and lysates were prepared in 4° C. lysis buffer containing protease inhibitors. Protein was quantified by bicinchoninic acid (BCA) assay (Pierce) and sample containing 15-25 μg total cellular protein was loaded on 4-12% reducing Bis-Tris gel. Resolved proteins were transferred to 0.45 μm nitrocellulose membrane, blocked with 5% non-fat dry milk or 5% bovine serum albumin in TRIS® buffered saline (TBS)-0.1% Tween 20 for 1 hr. Membranes were incubated with primary antibody (1:1000 dilution) for 1 hr at room temperature or overnight at 4° C. Appropriate secondary antibody was applied at dilution of 1:5000 for 1 hr, membrane washed thrice in TBS-0.1% Tween-20 and membrane visualized with Clarity ECL chemiluminescence kit and ChemiDoc imager (Bio-Rad, Hercules, Calif.).
To establish a murine model of NDI, mice were administered control chow diet or 0.17% LiCl diet for 0-7 days (FIG. 1A) during which body weight, food intake (Suppl. FIG. 1) and water intake (FIG. 1B) were monitored. […]
To further test the distribution of Nrf2 and sensitivity to activation in a translational model, NQO1 expression was determined in a cell culture model systems of primary human renal cortical cells representing proximal tubule (PT) and distal tubule (DT) cell populations (Emlet et al., Am. J. Physiol. - Ren. Physiol. 312, (2017)) in the presence or absence of the Nrf2 activator CDDO-Imidazolide (CDDO-Im) (FIG. 5C-F). […]
In general terms: In western blotting, separated proteins are transferred to a membrane and probed.

Data set [3] relates to Nrf2. Description: CDDO-Me in the Li-NDI mouse model. The data set is classed as in vivo, mice. The note with it: 5 mg/kg I.P., q.d. As to the method:
FIGS. 9A-9J. Pharmacologic activation of Nrf2 using CDDO-Me protects against polydipsia in Li-NDI via an AQP2-independent mechanism. (A) Schematic of model of Li-NDI. All mice received normal chow for 0-3d and were randomized to vehicle or CDDO-Me (5 mg/kg I.P., q.d.). At day 3, mice were randomized to either normal chow or 0.17% LiC1 diet. (B) Animal weights as a function of time, normalized to starting weight. (C) 24 hr food intake normalized to body weight. (D) Changes in water intake as a % of baseline expressed as mean±SE (n=6-8 per group). *(p<0.05) denotes statistical significance compared to LiC1-Vehicle by two-way ANOVA with Dunnet correction for multiple comparisons. (E) Immunoblotting of whole-kidney lysates for glycosylated ( ? , 45 kDa) and non-glycosylated ( ? , 29 kDa) AQP2 and NQO1; (F-H) Densitometry showing individual values, mean±SE with statistical analysis by one-way ANOVA with Tukey correction for multiple comparisons. (I) Plasma Li concentration. […]
Water and Urine: Mice and food were weighed daily. Water was supplied in 50 mL conical with sipper tube as described (bio-protocol.org/e1822), and daily water intake was determined by weight. Spot urine was collected after spontaneous voiding on plastic wrap and urine osmolality measured in technical duplicate with Wescor 5500® Vapor Pressure Osmometer using lOuL urine and the average value reported each mouse. […]

The conditions of data set [4]: Nrf2-/- mice.
A short description of data set [5]: Dietary Li administration in Keap1f/f mice (constitutive Nrf2 activation). It counts as in vivo. The method, then:
Water and Urine: Mice and food were weighed daily. Water was supplied in 50 mL conical with sipper tube as described (bio-protocol.org/e1822), and daily water intake was determined by weight. Spot urine was collected after spontaneous voiding on plastic wrap and urine osmolality measured in technical duplicate with Wescor 5500® Vapor Pressure Osmometer using lOuL urine and the average value reported each mouse.
as §1
Consequently, Li was administered to mice with constitutive pharmacomimetic Nrf2 activation (Keap1^f/f) to test whether Nrf2 and Li induced NDI via synergistic or additive mechanisms (FIG. 3A). To our surprise, instead of exacerbating the renal toxicity of Li, activation of Nrf2 signaling conferred significant protective effects.
The duration of Li therapy in humans is on the order of months to decades. An experiment was done to evaluate if Nrf2 hyperactivation conferred long-term protection from the development of Li-NDI. 6-8 week old WT and Keap1^flox/flox mice were randomized to control or 0.17% LiCl diet for 8 months.

Where two headings read alike, the source gives them in different places.

For `CCCCCCCC/C(=C\CCCCCCCC(=O)O)[N+](=O)[O-]` [10-nitro-9(E)-octadec-9-enoic acid], the “symptoms of nephrogenic diabetes insipidus” value in data set [1] is recorded as “reduced symptoms of nephrogenic diabetes insipidus”.
`CC1(C)CC[C@]2(C(=O)n3ccnc3)CC[C@]3(C)[C@H](C(=O)C=C4[C@@]5(C)C=C(C#N)C(=O)C(C)(C)[C@@H]5CC[C@]43C)[C@@H]2C1` [CDDO-Im, CDDO-Imidazolide]: the NQO1 expression entry in data set [2] (CD-10/CD-13 positive HAK cells (proximal tubule), exposure to CDDO-Im) is on record as “did not further increase”. For the same compound, the “elevation in NQO1” value in data set [2] (MUC1 positive cells (distal tubule), exposure to CDDO-Im) stood at 3 fold.
As to `COC(=O)[C@]12CCC(C)(C)C[C@H]1[C@H]1C(=O)C=C3[C@@]4(C)C=C(C#N)C(=O)C(C)(C)[C@@H]4CC[C@@]3(C)[C@]1(C)CC2` [CDDO-Me, Bardoxolone methyl], in data set [3] (with LiCl diet), the food consumption entry was “without impacting”. Besides, the “increase of renal NQO1 expression” value in data set [3] (whole-kidney lysates) is 2- to 3 fold.
For the compound `[Cl-].[Li+]` [LiCl], the NQO1 expression result in data set [2] (Li 10 mM and 50 mM, Mucin 1-enriched distal tubule cells and CD10/CD13 proximal tubule cells) is on record as “No increase”. The “renal protein expression of Nrf2 gene target NQO1” value (0.17% LiCl diet, 7 days) is given as “without impacting”. Further, for the setting “0.17% LiCl diet, after 4 days”, the Water intake result is given as “significantly increased”. Further, the “renal expression of AQP2” value (0.17% LiCl diet, by 7 days) is on record as “significantly downregulated”. In addition, the “urine osmolality (hyposthenuria)” value (0.17% LiCl diet, day 7, spot urine) is recorded as “significant hyposthenuria”. Under “Example 4, Li treatment”, the “Expression of NQO1 in kidney” value was “not affected”. Also, the “glycosylated and non-glycosylated AQP2 isoforms in kidney” value (Example 4, both WT and Keap1f/f groups) is “significantly reduced”. Besides, the “volume status when water intake clamped to baseline intake” value (LiCl diet, baseline-clamped water) was “significant volume depletion with hypernatremia and polycythemia”. Besides, the “renal expression of CA-II” value (WT animals) was “reduced”. Also, the “renal COX-1 expression” value (WT mice) is reported as “down-regulate”. In addition, under “WT mice”, the “renal COX-2 expression” value is given as “down-regulate”. Also, the spot urine osmolality (WT-Li cohort, day 13) is given as 359+/−192 mOsm/kg. Moreover, the “reduction in body mass” value (WT-Li mice, Example 4) is given as around 5%. Besides, the “plasma Li+” value (both WT and Keap1f/f groups on LiCl diet) is “equivalently elevated”. Further, the “total expression of NCC (tNCC)” value (kidney lysates, WT-Li cohort) is recorded as “unchanged” and the “total expression of NCC (tNCC)” value in data set [5] (kidney lysates, Keap1f/f-Li cohort) is listed as “significantly reduced”. The “Activating phosphorylation of NCC at threonine 53 (pNCC, T53)” value (kidney lysates, both genotypes) is listed as “reduced”. In data set [4] (Li diet 6 days), the body weight result is reported as “slightly reduced”. In addition, the Food intake result in data set [4] (first 3 days of LiCl diet) is reported as “modestly suppressed”. For the same compound, the urine osmolality in data set [4] (spot urine, day 11) is 176+/−43 mOsm/kg; in data set [5] (Keap1f/f-Li cohort, day 13) it was 758+/−703 mOsm/kg. Further, the “water intake (polydipsia)” value in data set [5] (Keap1f/f mice receiving Li) is “normodipsic”. Also, the “body mass change vs control diet” value in data set [5] (Keap1f/f mice receiving LiCl) is given as “no change”. Further, the “average daily water intake compared to WT-Ctrl” value in data set [5] (Keap1flox/flox-Li mice, 0.17% LiCl diet) was “no significant increase”.
